Measured values reported in patent publication US20250092064A1, “BENZOTRIAZOLE COMPOUND” (DAIICHI SANKYO COMPANY, LIMITED, priority 2022, published 2025).

What was measured:
[1] = target: binding between Nrf2 and Keap1 (Homo sapiens (Human), UniProt Q14145); assay: FP assay (in vitro): inhibition of Nrf2-Keap1 binding by fluorescence polarization; conditions: GST-fused human Keap1 (325-642) 20 nM, FITC-labeled Nrf2 peptide 10 nM, 2 hr at room temperature
[2] = test system: NQO1 activity in Hepa1c1c7 cells; assay: NAD(P)H: quinone oxidoreductase-1 (NQO1) enzyme induction assay (in vitro); format: cell-based, mouse; conditions: Mus musculus, Hepa-1c1c7, NQO1 activity with 400 nM test compound as a ratio from the base without compound, about 48 hr
In short: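 Mouse Hepa1c1c7 hepatoma cells treated 48 hr with 400 nM compound (final). NQO1 activity in lysates read by absorbance at 610 nm; value is background-subtracted activity ratio versus untreated cells.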

Sequence of binding between Nrf2 and Keap1 (Q14145 325-624 limits assumed): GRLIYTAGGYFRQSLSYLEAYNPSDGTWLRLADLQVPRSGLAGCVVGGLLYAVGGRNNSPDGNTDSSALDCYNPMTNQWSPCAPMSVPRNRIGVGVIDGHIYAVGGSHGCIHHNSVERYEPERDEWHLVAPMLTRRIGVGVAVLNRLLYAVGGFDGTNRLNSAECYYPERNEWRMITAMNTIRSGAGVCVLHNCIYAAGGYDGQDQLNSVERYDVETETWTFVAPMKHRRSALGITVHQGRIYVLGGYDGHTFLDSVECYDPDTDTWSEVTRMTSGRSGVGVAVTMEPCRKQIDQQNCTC

Row | Compound | IC50 [1] [nM] | fold induction at 0.4 µM [2]
1 | CC[C@@H]1CN(Cc2cc([C@H](CC(=O)O)c3cc(C4CC4)c4c(nnn4C)c3C)cc3c2CCC3)S(=O)(=O)c2cc(Cl)cnc2O1 [Example 40, (3S)-3-(7-{[(4R)-8-Chloro-4-ethyl-1,1-dioxido-3,4-dihydro-2H-pyrido[2,3-b][1,4,5]oxathiazepin-2-yl]methyl}-2,3-dihydro-1H-inden-5-yl)-3-(7-cyclopropyl-1,4-dimethyl-1H-benzotriazol-5-yl)propanoic acid] | 10 to 30 | 3 to 5
2 | Cc1c([C@@H](CC(=O)O)c2cc3c(c(CN4CC5(CC5)Oc5ncc(Cl)cc5S4(=O)=O)c2)CCC3)ccc2c1nnn2C [Example 43, (3S)-3-{7-[(8′-Chloro-1′,1′-dioxido-spiro[cyclopropane-1,4′-pyrido[2,3-b][1,4,5]oxathiazepine]-2′(3′H)-yl)methyl]-2,3-dihydro-1H-inden-5-yl}-3-(1,4-dimethyl-1H-benzotriazol-5-yl)propanoic acid] | ≤ 10 | > 5
3 | CC[C@@H]1CN(Cc2cc([C@H](CC(=O)O)c3cc(OC(F)(F)F)c4c(nnn4C)c3C)cc3ccsc23)S(=O)(=O)c2cc(Cl)cnc2O1 [Example 46, (3S)-3-(7-{[(4R)-8-Chloro-4-ethyl-1,1-dioxido-3,4-dihydro-2H-pyrido[2,3-b][1,4,5]oxathiazepin-2-yl]methyl}-1-benzothiophen-5-yl)-3-[1,4-dimethyl-7-(trifluoromethoxy)-1H-benzotriazol-5-yl]propanoic acid] | 10 to 30 | 3 to 5
4 | CC[C@@H]1CN(Cc2cc([C@@H](CC(=O)O)c3ccc4c(nnn4C)c3C)cc3c2CCC3)S(=O)(=O)c2cc(C)cnc2O1 [Example 47, (3R)-3-(1,4-Dimethyl-1H-benzotriazol-5-yl)-3-(7-{[(4R)-4-ethyl-8-methyl-1,1-dioxido-3,4-dihydro-2H-pyrido[2,3-b][1,4,5]oxathiazepin-2-yl]methyl}-2,3-dihydro-1H-inden-5-yl)propanoic acid] | ≤ 10 | 3 to 5
5 | CC[C@@H]1CN(Cc2cc(C(CC(=O)O)c3cc(C4CC4)c4c(nnn4C)c3C)cc3ccsc23)S(=O)(=O)c2cc(Cl)cnc2O1 (stereo partly drawn) [Example 49, 3-(7-{[(4R)-8-Chloro-4-ethyl-1,1-dioxido-3,4-dihydro-2H-pyrido[2,3-b][1,4,5]oxathiazepin-2-yl]methyl}-1-benzothiophen-5-yl)-3-(7-cyclopropyl-1,4-dimethyl-1H-benzotriazol-5-yl)propanoic acid] | 30 to 100 | > 5
6 | CC[C@@H]1CN(Cc2cc(C(CC(=O)O)c3cc(OC)c4c(nnn4C)c3C)cc3ccsc23)S(=O)(=O)c2cc(Cl)cnc2O1 (stereo partly drawn) [Example 50, 3-(7-{[(4R)-8-Chloro-4-ethyl-1,1-dioxido-3,4-dihydro-2H-pyrido[2,3-b][1,4,5]oxathiazepin-2-yl]methyl}-1-benzothiophen-5-yl)-3-(7-methoxy-1,4-dimethyl-1H-benzotriazol-5-yl)propanoic acid] | 10 to 30 | > 5
7 | CC[C@@H]1CN(Cc2cc(C(CC(=O)O)c3cc(C(F)(F)F)c4c(nnn4C)c3C)cc3ccsc23)S(=O)(=O)c2cc(Cl)cnc2O1 (stereo partly drawn) [Example 53, 3-(7-{[(4R)-8-Chloro-4-ethyl-1,1-dioxido-3,4-dihydro-2H-pyrido[2,3-b][1,4,5]oxathiazepin-2-yl]methyl}-1-benzothiophen-5-yl)-3-[1,4-dimethyl-7-(trifluoromethyl)-1H-benzotriazol-5-yl]propanoic acid] | 10 to 30 | > 5

Continued, in another order:

Row | IC50 [1] [nM] | Compound | fold induction at 0.4 µM [2]
8 | ≤ 10 | CC[C@@H]1CN(Cc2cc([C@H](CC(=O)O)c3cc(C4CC4)c4c(nnn4C)c3C)cc3ccsc23)S(=O)(=O)c2cc(Cl)cnc2O1 [Example 41, (3S)-3-(7-{[(4R)-8-Chloro-4-ethyl-1,1-dioxido-3,4-dihydro-2H-pyrido[2,3-b][1,4,5]oxathiazepin-2-yl]methyl}-1-benzothiophen-5-yl)-3-(7-cyclopropyl-1,4-dimethyl-1H-benzotriazol-5-yl)propanoic acid] | > 5
9 | ≤ 10 | Cc1c([C@H](CC(=O)O)c2cc3c(c(CN4CC5(CC5)Oc5ncc(Cl)cc5S4(=O)=O)c2)CCC3)ccc2c1nnn2C [Example 42, (3R)-3-{7-[(8′-Chloro-1′,1′-dioxido-spiro[cyclopropane-1,4′-pyrido[2,3-b][1,4,5]oxathiazepine]-2′(3′H)-yl)methyl]-2,3-dihydro-1H-inden-5-yl}-3-(1,4-dimethyl-1H-benzotriazol-5-yl)propanoic acid] | > 5
10 | ≤ 10 | CC[C@@H]1CN(Cc2cc([C@@H](CC(=O)O)c3cc(C)c4c(nnn4C)c3C)cc3c2CCC3)S(=O)(=O)c2cc(Cl)cnc2O1 [Example 44, (3R)-3-(7-{[(4R)-8-Chloro-4-ethyl-1,1-dioxido-3,4-dihydro-2H-pyrido[2,3-b][1,4,5]oxathiazepin-2-yl]methyl}-2,3-dihydro-1H-inden-5-yl)-3-(1,4,7-trimethyl-1H-benzotriazol-5-yl)propanoic acid] | 3 to 5
11 | ≤ 10 | CC[C@@H]1CN(Cc2cc([C@@H](CC(=O)O)c3cc(OC(F)(F)F)c4c(nnn4C)c3C)cc3ccsc23)S(=O)(=O)c2cc(Cl)cnc2O1 [Example 45, (3R)-3-(7-{[(4R)-8-Chloro-4-ethyl-1,1-dioxido-3,4-dihydro-2H-pyrido[2,3-b][1,4,5]oxathiazepin-2-yl]methyl}-1-benzothiophen-5-yl)-3-[1,4-dimethyl-7-(trifluoromethoxy)-1H-benzotriazol-5-yl]propanoic acid] | > 5
12 | ≤ 10 | CC[C@@H]1CN(Cc2cc([C@@H](CC(=O)O)c3ccc4c(nnn4C)c3C)cc3c2CCC3)S(=O)(=O)c2cccc(Cl)c2O1 [Example 48, (3R)-3-(7-{[(4R)-6-Chloro-4-ethyl-1,1-dioxido-3,4-dihydro-2H-5,1,2-benzoxathiazepin-2-yl]methyl}-2,3-dihydro-1H-inden-5-yl)-3-(1,4-dimethyl-1H-benzotriazol-5-yl)propanoic acid] | > 5
13 | 10 to 30 | CC[C@@H]1CN(Cc2cc(C(CC(=O)O)c3cc(Cl)c4c(nnn4C)c3C)cc3ccsc23)S(=O)(=O)c2cc(Cl)cnc2O1 (stereo partly drawn) [Example 51, 3-(7-Chloro-1,4-dimethyl-1H-benzotriazol-5-yl)-3-(7-{[(4R)-8-chloro-4-ethyl-1,1-dioxido-3,4-dihydro-2H-pyrido[2,3-b][1,4,5]oxathiazepin-2-yl]methyl}-1-benzothiophen-5-yl)propanoic acid] | 3 to 5
14 | 10 to 30 | CC[C@@H]1CN(Cc2cc(C(CC(=O)O)c3cc(C#N)c4c(nnn4C)c3C)cc3ccsc23)S(=O)(=O)c2cc(Cl)cnc2O1 (stereo partly drawn) [Example 52, 3-(7-{[(4R)-8-Chloro-4-ethyl-1,1-dioxido-3,4-dihydro-2H-pyrido[2,3-b][1,4,5]oxathiazepin-2-yl]methyl}-1-benzothiophen-5-yl)-3-(7-cyano-1,4-dimethyl-1H-benzotriazol-5-yl)propanoic acid] | > 5
